From patent US20210301038A1, “POLYSIALIC ACID AND DERIVATIVES THEREOF, PHARMACEUTICAL COMPOSITION AND METHOD OF PRODUCING POLYSIALIC ACID” (Medizinische Hochschule Hannover (MHH), priority 2018, published 2021)

Experiments:
[1] = test system: mPFC slices from St8sia4−/− mice; test: TBS-induced LTP in mPFC slices from ST8SIA4-deficient mice and wild-type littermates; type: cell-based, mouse; settings: Ro 25-6981 0.3 μM, DP12 1 μg/ml, sarcosine 0.75 mM; for LTP magnitude: St8sia4+/+ mice; for LTP level 50-60 min after TBS: St8sia4−/− mice
Description: (§1) For endoNF treatment in C57BL/6J mice, slices were first allowed to recover for 20 min at room temperature (22-24° C.) in recording aCSF and were then placed in a 24-well plate to be incubated in 2 ml of aCSF without (sham) or with addition of endoNF (10 μg/ml) at 35° C. for 2 hours. The 24-well plate was installed in a water bath (ED, Julabo, Seelbach, Germany). For field excitatory postsynaptic potential (fEPSP) recordings in knockout and transgenic mice, mPFC slices were incubated in recording aCSF for >2 hours at room temperature before recordings. For patch-clamp recordings in knockout mice, slices were incubated first at 35° C. for 20 min and then at room temperature for >30 min before recordings started. The aCSF was continuously gassed with 95% O2/5% CO2 during all incubation steps and recordings.
Prefrontal slices (400 μm) were transferred to a submerged-type recording MC membrane chamber (volume 2 ml; Scientific Systems Design Inc., Mississauga, Ontario, Canada) perfused with oxygenated recording ACSF at a flow rate of 4 ml/min and maintained at room temperature (22-25° C.), unless stated otherwise in the “Results”-section given below. Field EPSPs were evoked and recorded using thin-walled glass electrodes (borosilicate glass, wall thickness 0.188, length 100, and outer diameter 1.5 mm, Hilgenberg, Malsfeld, Germany) filled with recording aCSF in 400 μm-thick mPFC slices. In order to stimulate electrically the input fibers of pyramidal cells, the stimulation electrode (0.3-0.5 MΩ) was inserted into layers II/III of the prelimbic cortex. The recording electrode (2-2.5 MΩ) was placed in the vicinity of dendrites and cell bodies of pyramidal neurons in layer V (Huang et al., 2004).
Before LTP induction, basal synaptic transmission was recorded in each slice and the relationship between stimulus intensity and fEPSP slope was measured. Basal fEPSPs were evoked at 0.05 Hz for at least 10 min. The supramaximal slope was determined by gradually increasing the stimulation intensity until a population spike in the fEPSP became first visible. The stimulation intensity was adjusted to elicit a basal fEPSP with a slope of approximately 50% of the supramaximal value.
LTP was induced by application of five trains of theta-burst stimulation (TBS) with an inter-theta-train interval of 20 s (Brennaman et al., 2011). Each train consisted of 8 bursts delivered at 5 Hz. Each burst consisted of four pulses delivered at 100 Hz. Duration of pulses was 0.2 ms. For calculation of the LTP level, the mean fEPSP slope was measured between 50-60 min after TBS delivery, and it was then normalized to mean baseline fEPSP slope during 0-10 min before TBS. Stimulus artifacts in representative fEPSP examples in figures were blanked to facilitate the perception of fEPSPs recorded in the mPFC. Recording and analysis of LTP in St8Sia4^−/− mice was performed in a blind manner.

[2] = test system: NMDAR-EPSCs (GluN1/GluN2B receptors); test: Evoked NMDAR-EPSCs, whole-cell patch-clamp of layer V pyramidal neurons in sham- or endoNF-treated mPFC slices; type: cell-based, mouse; settings: for inhibition of NMDAR-EPSC amplitude: sham-treated mPFC slices, DP12 1 μg/ml, then subsequently applied 0.3 μM Ro 25-6981
Source text: Each mouse was quickly sacrificed by cervical dislocation. After decapitation, the brain was rapidly removed from the skull and placed in ice-cold artificial cerebrospinal fluid (aCSF) equilibrated with 95% O2/5% CO2, which was composed of the following (in mM): 250 sucrose, 24 NaHCO3, 25 glucose, 2.5 KCl, 1.25 NaH2PO4, 2 CaCl2, and 1.5 MgCl2 (osmolarity 345-350 mOsm/kg, pH 7.4). Using a VT1200S vibratome (Leica, Nussloch, Germany), coronal slices containing the prelimbic and infralimbic cortices (1.9-1.3 mm anterior to bregma) were cut 350 μm or 400 μm thick, for patch clamp and extracellular recordings, respectively, in the same sucrose-containing aCSF. Then, the slices were transferred to a slice holding chamber filled with recording aCSF (osmolarity 300-305 mOsm/kg, pH 7.4) that contained 120 mM NaCl instead of sucrose (Eckhardt et al., 2000) and was continuously gassed with 95% O2/5% CO2.
as §1
For whole-cell patch-clamp recordings, layer V pyramidal neurons were visualized using a SliceScope Pro 6000 equipped with a 40× water-immersion objective and infrared differential interference contrast microscopy (Scientifica, Uckfield, UK). Pyramidal cells were identified by their triangular soma and long apical dendrites, and synaptically evoked excitatory postsynaptic currents (EPSCs) were recorded using patch pipettes (3-5 MQ) fabricated using borosilicate glass capillaries (wall thickness 0.315, length 100, outer diameter 1.5 mm, Hilgenberg) and a DMZ-Zeitz puller (Zeitz Instruments GmbH, Martinsried, Germany). The intracellular pipette solution contained the following (in mM): 140.7 Cs-methane-sulfonate, 5 NaCl, 1 MgCl2, 0.2 EGTA, 10 HEPES, 3 ATP-Mg, 0.3 Na-GTP, and 3.1 QX-314 (osmolarity 295 mOsm/kg, adjusted to pH 7.2 with CsOH). EPSCs were evoked by electrical pulses (0.2 ms) at 0.033 Hz via a glass pipette placed in layer II/III of the mPFC (identically to fEPSPs). Mixed EPSCs showing a fast AMPAR-mediated component and a slow NMDAR-mediated component were recorded at a −60 mV holding potential in whole-cell voltage-clamp mode in normal aCSF. The stimulation intensity was adjusted to evoke mixed EPSCs with amplitudes of approximately 300 pA. The slow NMDAR-mediated component of EPSCs was pharmacologically isolated at −60 mV in modified aCSF containing low Mg^2+ (0.1 mM) and high Ca^2+ (3.2 mM, for adjustment of divalent cation concentrations), the selective antagonist of α-amino-3-hydroxy-5-methyl-4-isoxazolepropionic acid (AMPA)/kainate receptors NBQX (10 μM), and the selective antagonist of γ-aminobutyric acid (GABA)B receptors CGP-55845 (2 μM) (Chen et al., 2003). The washout of Mg^2+ required at least 25 min. Recordings at a holding potential near the resting membrane potential allowed us to obtain stable NMDAR-EPSC recordings from pyramidal cells lasting for 1-1.5 hours. Series resistance (Rs, range 10-25 MΩ) was compensated (20-30%) and monitored continuously. Neurons in which Rs changed by more than 20% throughout the experiment were not included in the analysis. In voltage-clamp mode, membrane potential was not corrected for liquid junction potential. […]

Molecule	LTP magnitude [1]	LTP level 50-60 min after TBS [1]	decrease of NMDAR-EPSC amplitude ([2]; endoNF-treated slices, 1 μg/ml) [%]	inhibition as % of the mean inhibition produced by Ro 25-6981 applied alone ([2]; endoNF-treated slices, same time window, estimated) [%]	inhibition of NMDAR-EPSC amplitude [2]	reduction of EPSC amplitude on subsequent application after DP1 ([2]; endoNF-treated slices, 0.3 μM) [%]	reduction of NMDAR-EPSC amplitude on subsequent application after DP12 ([2]; endoNF-treated slices, 0.3 μM Ro 25-6981 after DP12)
(α(2→8)Neu5Ac)12 [DP12]	no effect	full restoration of LTP levels	~25	~90	no significant inhibition		
C[C@@H](CN1CCC(Cc2ccccc2)CC1)[C@@H](O)c1ccc(O)cc1.O=C(O)/C=C\C(=O)O [Ro 25-6981, (αR,βS)-α-(4-hydroxyphenyl)-β-methyl-4-(phenylmethyl)-1-piperidinepropanol maleate]	no effect	full restoration of LTP levels			no significant inhibition	~20	marginally
